# Data: patent publication US12102644B2, “Compounds and methods of promoting myelination” (Case Western Reserve University, priority 2019, dated 2024)
# Tests used:
# [1] = system: mouse brain sterol levels; experiment: Analysis of mouse brain sterol levels (GC/MS); assay type: in vivo; details: ifenprodil 10 mg per kg, tamoxifen 2 mg per kg, daily, 3 days
# [2] = mouse; cited from earlier work
# LPC-lesioned spinal cord = experiment: LPC focal demyelination of spinal cord, remyelination histology; assay type: in vivo, mouse; details: ifenprodil 10 mg per kg or tamoxifen 2 mg per kg, daily i.p., 8 days from day 4 after lesion
# [3] = system: human myelinating cortical spheroids; experiment: MyRF+ oligodendrocytes in human myelinating cortical spheroids; assay type: cell-based; details: spheroids treated 10 days from day 62, stained day 93
# Method: Spheroids at day 62 were treated with the indicated small molecules for 10 days and stained at day 93. Four spheroids were analyzed per treatment condition, and four fields per organoid were used in the quantitation. f) Representative images of spheroids. Nuclei are labeled with DAPI (blue), and oligodendrocytes are immunostained for MyRF (red). Scale bar, 100 μm.
# [4] = system: human induced pluripotent stem cell-derived cortical spheroids; experiment: Sterol profiling in human iPSC-derived cortical spheroids; assay type: cell-based
structure (smiles),measurement,setting,value
"CC(C(O)c1ccc(O)cc1)N1CCC(Cc2ccccc2)CC1 (centres unmarked) [ifenprodil, Ifenprodil]","8,9-unsaturated sterols in mouse CNS",[1],"induced significant accumulation of 8,9-unsaturated sterols in vivo in the CNS"
same,blood brain barrier penetration,[2],known to cross the mouse blood brain barrier
same,remyelination of LPC lesion,LPC-lesioned spinal cord,remyelination was widespread throughout the lesion
same,formation of MyRF-positive human oligodendrocytes,[3],enhanced the formation of myelin regulatory factor (MyRF)-positive human oligodendrocytes
same,"8,9-unsaturated sterol accumulation in human cortical spheroids",[4],"led to 8,9-unsaturated sterol accumulation"
